This passage reports IC50 results from patent US20140088124A1, “IMIDAZOLE DERIVATIVES” (priority 2011, published 2014).

This test has as its target T1, human DGAT1 (Homo sapiens, UniProt O75907).
T1 sequence (O75907 1-488): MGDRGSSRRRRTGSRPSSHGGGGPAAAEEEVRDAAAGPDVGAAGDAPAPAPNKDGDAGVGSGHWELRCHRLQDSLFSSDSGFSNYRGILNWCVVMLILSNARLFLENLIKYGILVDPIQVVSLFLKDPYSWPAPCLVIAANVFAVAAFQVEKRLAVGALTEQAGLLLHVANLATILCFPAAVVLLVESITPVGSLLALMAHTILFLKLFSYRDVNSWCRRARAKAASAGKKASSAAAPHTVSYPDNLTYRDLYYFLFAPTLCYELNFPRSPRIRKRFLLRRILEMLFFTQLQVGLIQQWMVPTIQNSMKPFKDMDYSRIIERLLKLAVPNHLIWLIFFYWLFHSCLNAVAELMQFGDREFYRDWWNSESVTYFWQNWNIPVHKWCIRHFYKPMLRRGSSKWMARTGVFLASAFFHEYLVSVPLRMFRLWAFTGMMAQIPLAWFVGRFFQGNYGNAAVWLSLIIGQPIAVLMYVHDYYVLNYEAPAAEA
The test is described as follows: DGAT1 CPM Assay. Type of test: biochemical. The settings on record: human DGAT1, CPM fluorescence, 1 hour incubation at room temperature. As to the method: 20 uL of 90 uM CPM reagent in 90% ethanol was added after 1 hour incubation at room temperature.
Broadly, the IC50 is the concentration that gives 50% inhibition. Low values mean greater potency, high ones weaker potency. With `O=C(O)C[C@H]1CC[C@@H](OC2CCN(c3ccc(-c4nc5cc(F)ccc5[nH]4)cn3)C2)CC1` (single isomer, unassigned) [Example 139], the IC50 was determined as 0.012 µM.

`O=C(O)C[C@H]1CC[C@@H](OC2CCN(c3ccc(-c4nc5cc(F)ccc5[nH]4)cn3)C2)CC1` (single isomer, unassigned) [Example 140] yielded an IC50 of 0.089 µM.

Take `O=C(O)C[C@H]1CC[C@@H](O[C@H]2C[C@H]3C[C@@H]2CN3c2ccc(-c3nc4cc(F)ccc4[nH]3)cn2)CC1` (single isomer, unassigned; enantiomer 1) [Example 28, [cis-4-({2-[5-(5-fluoro-1-benzimidazol-2-yl)pyridin-2-yl]-2-azabicyclo[2.2.1]hept-5-yl}oxy)cyclohexyl]acetic acid enantiomer 1]: the 50% inhibitory concentration (IC50) came to 0.023 µM.

In turn, `O=C(O)C[C@H]1CC[C@@H](O[C@@H]2CC3C[C@H]2CN3c2ccc(-c3nc4cc(F)ccc4[nH]3)cn2)CC1` (single isomer, unassigned; enantiomer 2) [Example 29, [cis-4-({2-[5-(5-fluoro-1H-benzimidazol-2-yl)pyridin-2-yl]-2-azabicyclo[2.2.1]hept-5-yl}oxy)cyclohexyl]acetic acid enantiomer 2] had an IC50 of 5 µM.

Compound `O=C(O)C[C@H]1CC[C@H](OC2CCN(c3ccc(-c4nc5ccc(F)cc5[nH]4)cn3)CC2)CC1` [Example 1, [trans-4-({1-[5-(6-fluoro-1H-benzimidazol-2-yl)pyridin-2-yl]piperidin-4-yl}oxy)cyclohexyl]acetic acid] yielded an IC50 of 0.006 µM.

In turn, `O=C(O)C[C@H]1CC[C@@H](OC2CCN(c3ccc(-c4nc5ccc(F)cc5[nH]4)cn3)CC2)CC1` [Example 2, [cis-4-({1-[5-(6-fluoro-1H-benzimidazol-2-yl)pyridin-2-yl]piperidin-4-yl}oxy)cyclohexyl]acetic acid] came in with an IC50 of 0.008 µM.

`CCOc1ccc2nc(-c3ccc(N4CCC(O[C@H]5CC[C@H](CC(=O)O)CC5)CC4)nc3)[nH]c2n1` [Example 4, [trans-4-({1-[5-(5-ethoxy-3H-imidazo[4,5-b]pyridin-2-yl)pyridin-2-yl]piperidin-4-yl}oxy)cyclohexyl]acetic acid] showed an IC50 of 0.027 µM.

The compound `O=C(O)C[C@H]1CC[C@@H](OC2CCN(c3ccc(-c4nc5ccc(C(F)(F)F)cc5[nH]4)cn3)CC2)CC1` [Example 5] had a 50% inhibitory concentration (IC50) of 0.005 µM.

In the case of `O=C(O)C[C@H]1CC[C@H](OC2CCN(c3ccc(-c4nc5ccccc5[nH]4)cn3)CC2)CC1` [Example 7], the IC50 worked out at 0.019 µM.

The compound `O=C(O)C[C@H]1CC[C@@H](OC2CCN(c3ccc(-c4nc5ccccc5[nH]4)cn3)CC2)CC1` [Example 8] came in with an IC50 of 0.015 µM.

In turn, `CCOc1ccc2nc(-c3ccc(N4CCC(O[C@H]5CC[C@@H](CC(=O)O)CC5)CC4)nc3)[nH]c2n1` [Example 9] registered an IC50 of 0.02 µM.

For `Cc1nc(N2CCC(O[C@H]3CC[C@H](CC(=O)O)CC3)CC2)ccc1-c1nc2ccccc2[nH]1` [Example 10], the IC50 worked out at 7.9 µM.

`Cc1nc(N2CCC(O[C@H]3CC[C@@H](CC(=O)O)CC3)CC2)ccc1-c1nc2ccccc2[nH]1` [Example 11]: the IC50 was 6.6 µM.

Compound `Cc1cc(N2CCC(O[C@H]3CC[C@H](CC(=O)O)CC3)CC2)ncc1-c1nc2ccccc2[nH]1` [Example 12] registered an IC50 of 0.349 µM.

In the case of `Cc1cc(N2CCC(O[C@H]3CC[C@@H](CC(=O)O)CC3)CC2)ncc1-c1nc2ccccc2[nH]1` [Example 13], the midpoint of inhibition, the IC50, lay at 0.147 µM.

`O=C(O)C[C@H]1CC[C@H](OC2CCN(c3ccc(-c4nc5cccc(Br)c5[nH]4)cn3)CC2)CC1` [Example 14] yielded an IC50 of 0.007 µM.

Regarding `O=C(O)C[C@H]1CC[C@H](OC2CCN(c3ccc(-c4nc5cc(F)c(F)c(Br)c5[nH]4)cn3)CC2)CC1` [Example 15], 0.002 µM corresponded to half-maximal inhibition (IC50).

`O=C(O)C[C@H]1CC[C@H](OC2CCN(c3ccc(-c4nc5cc(F)c(F)cc5[nH]4)cn3)CC2)CC1` [Example 16, [trans-4-({1-[5-(5,6-difluoro-1H-benzimidazol-2-yl)pyridin-2-yl]piperidin-4-yl}oxy)cyclohexyl]acetic acid] came in with an IC50 of 0.004 µM.

On to `O=C(O)C[C@H]1CC[C@H](OC2CCN(c3ccc(-c4nc5cc(C(F)(F)F)cnc5[nH]4)cn3)CC2)CC1` [Example 17], for which the IC50 is 0.024 µM.

Compound `N#Cc1ccc2[nH]c(-c3ccc(N4CCC(O[C@H]5CC[C@H](CC(=O)O)CC5)CC4)nc3)nc2c1` [Example 18] yielded a concentration for half-maximal inhibition (IC50) of 0.026 µM.

Take `O=C(O)C[C@H]1CC[C@H](OC2CCN(c3ccc(-c4nc5cc(Cl)ccc5[nH]4)cn3)CC2)CC1` [Example 19]: the IC50 stood at 0.003 µM.

In turn, `O=C(O)C[C@H]1CC[C@H](OC2CCN(c3ccc(-c4nc5cc(Cl)cnc5[nH]4)cn3)CC2)CC1` [Example 20] had an IC50 of 0.061 µM.

`Cc1ccc2[nH]c(-c3ccc(N4CCC(O[C@H]5CC[C@H](CC(=O)O)CC5)CC4)nc3)nc2n1` [Example 21]: the IC50 was determined as 0.44 µM.

As to `COc1ccc2[nH]c(-c3ccc(N4CCC(O[C@H]5CC[C@H](CC(=O)O)CC5)CC4)nc3)nc2n1` [Example 22], it took 0.051 µM to reach half-maximal inhibition (IC50).

With `O=C(O)C[C@H]1CC[C@H](OC2CCN(c3ccc(-c4nc5nc(C(F)(F)F)ccc5[nH]4)cn3)CC2)CC1` [Example 23], half-maximal inhibition (IC50) required 0.016 µM.

As for `CCCCc1ccc2nc(-c3ccc(N4CCC(O[C@H]5CC[C@@H](CC(=O)O)CC5)CC4)nc3)[nH]c2c1` [Example 24, [cis-4-({1-[5-(6-butyl-1H-benzimidazol-2-yl)pyridin-2-yl]piperidin-4-yl}oxy)cyclohexyl]acetic acid], the IC50 amounted to 0.004 µM.

For `O=C(O)C[C@H]1CC[C@@H](OC2CCN(c3ccc(-c4nc5cc(F)c(F)cc5[nH]4)cn3)CC2)CC1` [Example 25], the IC50 is 0.003 µM.

`O=C(O)C[C@H]1CC[C@@H](OC2CCN(c3ccc(-c4nc5cc(Cl)ccc5[nH]4)cn3)CC2)CC1` [Example 26] registered an IC50 of 0.003 µM.

In the case of `O=C(O)C[C@H]1CC[C@@H](OC2CCN(c3ccc(-c4nc5nc(C(F)(F)F)ccc5[nH]4)cn3)CC2)CC1` [Example 27], the IC50 is 0.013 µM.

Consider `O=C(O)[C@H]1C[C@@H](OC2CCN(c3ccc(-c4nc5ccc(C(F)(F)F)cc5[nH]4)cn3)CC2)C1` [Example 32, cis-3-[(1-{5-[6-(trifluoromethyl)-1H-benzimidazol-2-yl]pyridin-2-yl}piperidin-4-yl)oxy]cyclobutanecarboxylic acid], for which the IC50 stood at 0.009 µM.

`O=C(O)[C@H]1C[C@H](OC2CCN(c3ccc(-c4nc5ccc(C(F)(F)F)cc5[nH]4)cn3)CC2)C1` [Example 33, trans-3-[(1-{5-[6-(trifluoromethyl)-1H-benzimidazol-2-yl]pyridin-2-yl}piperidin-4-yl)oxy]cyclobutanecarboxylic acid] returned a concentration for half-maximal inhibition (IC50) of 0.007 µM.

`CC(C)(COC1CCN(c2ccc(-c3nc4cc(C(F)(F)F)ccc4[nH]3)cn2)CC1)C(=O)O` [Example 34]: the IC50 stood at 0.004 µM.

`COC(=O)C(C)(C)COC1CCN(c2ccc(-c3nc4ccccc4[nH]3)cn2)CC1` [Example 35] displayed an IC50 of 0.029 µM.

Turning to `CC(C)(COC1CCN(c2ccc(-c3nc4ccccc4[nH]3)cn2)CC1)C(=O)O` [Example 36], half-maximal inhibition (IC50) required 0.067 µM.

With `O=C(O)C1(COC2CCN(c3ccc(-c4nc5ccc(C(F)(F)F)cc5[nH]4)cn3)CC2)CCC1` [Example 37], the IC50 came out at 0.002 µM.

The compound `O=C(O)C1(COC2CCN(c3ccc(-c4nc5ccc(C(F)(F)F)cc5[nH]4)cn3)CC2)CC1` [Example 38] yielded an IC50 of 0.008 µM.
